Source: patent US12180192B2, “Modulators of THR-β and methods of use thereof” (ALIGOS THERAPEUTICS, INC., priority 2019, dated 2024)

Columns and labels:
[1] = target: T1, human thyroid receptor beta ligand-binding domain (LBD) (Homo sapiens, UniProt P10828); test: TR-FRET thyroid receptor beta coactivator assay (THR biochemical assay, Assay 1); conditions: for EC50: THR-beta, TR-FRET coactivator assay, read-out: Activity category Assay 1 (EC50, THR-beta agonist); for Emax: read-out: Activity category Assay 1 THRβ (Emax)
T1 construct: purchased Invitrogen
T1 sequence (P10828 217-461 limits assumed): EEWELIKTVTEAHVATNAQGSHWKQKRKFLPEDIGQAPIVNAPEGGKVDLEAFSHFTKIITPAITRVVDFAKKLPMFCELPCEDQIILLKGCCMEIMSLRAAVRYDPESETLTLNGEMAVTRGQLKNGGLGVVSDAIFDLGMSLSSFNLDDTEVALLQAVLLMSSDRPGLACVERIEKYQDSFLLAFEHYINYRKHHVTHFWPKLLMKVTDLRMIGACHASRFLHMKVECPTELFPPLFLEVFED
In short: (§1)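 GST-tagged human TRβ or TRα LBD, 1 nM final (stated for β), with fluorescein-SRC2-2 coactivator peptide (200 nM) and Tb-anti-GST antibody (2 nM). Agonists serially diluted, 1% DMSO final. 1 h incubation at rt in the dark; TR-FRET read as rise in fluorescein and drop in terbium emission.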

[2] = target: T2, human thyroid receptor alpha ligand-binding domain (LBD) (Homo sapiens, UniProt P10827); test: TR-FRET thyroid receptor alpha coactivator assay (THR biochemical assay, Assay 1); conditions: for EC50: Table 4, THR-alpha, read-out: Activity category Assay 1 (EC50, THR-alpha agonist activity); for Emax: read-out: Activity category Assay 1 THRα (Emax)
T2 construct: purchased Invitrogen
In short: as §1

T2 sequence (P10827 163-410 isoform P10827-2 limits assumed, other chains not shown): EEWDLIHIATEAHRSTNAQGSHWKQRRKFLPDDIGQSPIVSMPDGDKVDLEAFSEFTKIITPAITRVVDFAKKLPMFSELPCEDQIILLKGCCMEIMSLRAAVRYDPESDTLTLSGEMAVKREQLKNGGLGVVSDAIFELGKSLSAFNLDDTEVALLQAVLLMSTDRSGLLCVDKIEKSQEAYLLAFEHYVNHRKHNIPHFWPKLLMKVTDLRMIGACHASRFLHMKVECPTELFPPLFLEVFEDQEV

| Compound | EC50 [1] [nM] | Activity category Assay 1 THRβ (Emax) ([1]; Table 5, Assay 1, THRβ) | EC50 [2] [nM] | Activity category Assay 1 THRα (Emax) ([2]; Table 5, THRα) | Emax ([1]; Table 5, Assay 1, THRβ) [%] | Emax ([2]; Table 5, THRα) [%] |
| --- | --- | --- | --- | --- | --- | --- |
| Cc1ccc(-c2cc(Oc3c(Cl)cc(-n4nc(N)c(=O)[nH]c4=O)cc3Cl)n[nH]c2=O)cc1C [Compound 112] | 50 to 250 | – | 250 to 1000 | – | < 50 | < 50 |
| Nc1nn(-c2cc(Cl)c(Oc3cc(C4CC5(CC5)C4)c(=O)[nH]n3)c(Cl)c2)c(=O)[nH]c1=O [Compound 93] | 50 to 250 | – | 250 to 1000 | – | < 50 | < 50 |
| Nc1nn(-c2cc(Cl)c(Oc3cc(C4CC5(CCC5)C4)c(=O)[nH]n3)c(Cl)c2)c(=O)[nH]c1=O [Compound 94] | 50 to 250 | – | 250 to 1000 | – | < 50 | < 50 |
| CC(C)c1c[nH]c2ccc(Oc3c(Cl)cc(-n4nc(C#N)c(=O)[nH]c4=O)cc3Cl)nc12 [Compound 18] | < 50 | – | > 25000 | – | < 50 | < 50 |
| Nc1nn(-c2cc(Cl)c(Oc3cc(C4Cc5ccccc54)c(=O)[nH]n3)c(Cl)c2)c(=O)[nH]c1=O (stereo not drawn) [Compound 158] | < 50 | – | 250 to 1000 | – | < 50 | < 50 |
| Cc1cc(-n2nc(C#N)c(=O)[nH]c2=O)cc(C)c1Cc1ccc2[nH]cc(C(C)C)c2n1 [Compound 31, 2-[4-[(3-isopropyl-1H-pyrrolo[3,2-b]pyridin-5-yl)methyl]-3,5-dimethyl-phenyl]-3,5-dioxo-1,2,4-triazine-6-carbonitrile] | < 50 | – | < 50 | – | 50 to 75 | < 50 |

Further lines, results first:

| EC50 [1] [nM] | Activity category Assay 1 THRβ (Emax) ([1]; Table 5, Assay 1, THRβ) | EC50 [2] [nM] | Activity category Assay 1 THRα (Emax) ([2]; Table 5, THRα) | Emax ([1]; Table 5, Assay 1, THRβ) [%] | Emax ([2]; Table 5, THRα) [%] | Compound |
| --- | --- | --- | --- | --- | --- | --- |
| < 50 | C (Emax<50%) | 50 to 250 | C (Emax<50%) | – | – | CC(c1ccccc1)c1cc(Oc2c(Cl)cc(-n3nc(N)c(=O)[nH]c3=O)cc2Cl)n[nH]c1=O (single isomer, unassigned) [Compound 164, 6-Amino-2-(3,5-dichloro-4-((6-oxo-5-(1-phenylethyl)-1,6-dihydropyridazin-3-yl)oxy)phenyl)-1,2,4-triazine-3,5(2H,4H)-dione] |
| < 50 | – | 50 to 250 | – | < 50 | < 50 | Cc1cccc(-c2cc(Oc3c(Cl)cc(-n4nc(N)c(=O)[nH]c4=O)cc3Cl)n[nH]c2=O)c1 [Compound 70, 6-Amino-2-(3,5-dichloro-4-((6-oxo-5-(m-tolyl)-1,6-dihydropyridazin-3-yl)oxy)phenyl)-1,2,4-triazine-3,5(2H,4H)-dione] |
| < 50 | – | < 50 | – | > 75 | > 75 | Cc1cc(-n2nc(N)c(=O)[nH]c2=O)cc(C)c1Cc1ccc(O)c(-c2ccccc2)n1 [Compound 43, 6-amino-2-[4-[(5-hydroxy-6-phenylpyridin-2-yl)-methyl]-3,5-dimethylphenyl]-4H-1,2,4-triazine-3,5-dione] |
| < 50 | – | 50 to 250 | – | < 50 | < 50 | Nc1nn(-c2cc(Cl)c(Oc3n[nH]c(=O)cc3-c3ccc4c(c3)CCCC4)c(Cl)c2)c(=O)[nH]c1=O [Compound 72-A, 6-amino-2-(3,5-dichloro-4-[[6-oxo-4-(5,6,7,8-tetrahydronaphthalen-2-yl)-1H-pyridazin-3-yl]oxy]phenyl)-4H-1,2,4-triazine-3,5-dione] |
| < 50 | – | 250 to 1000 | – | < 50 | < 50 | CC1(C)CC(c2cc(Oc3c(Cl)cc(-n4nc(N)c(=O)[nH]c4=O)cc3Cl)n[nH]c2=O)C1 [Compound 89, 6-Amino-2-(3,5-dichloro-4-((5-(3,3-dimethylcyclobutyl)-6-oxo-1,6-dihydropyridazin-3-yl)oxy)phenyl)-1,2,4-triazine-3,5(2H,4H)-dione] |
| < 50 | – | < 50 | – | 50 to 75 | < 50 | CC(C)c1c[nH]c2ccc(Oc3c(Cl)cc(-n4nc(C#N)c(=O)[nH]c4=O)cc3Cl)cc12 [Compound 1, 2-[3,5-dichloro-4-[(3-isopropyl-1H-indol-5-yl)oxy]-phenyl]-3,5-dioxo-4H-1,2,4-tri-azine-6-carbonitrile] |
